The values below come from PubChem BioAssay (NCI).

Each structure is given as a SMILES string.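 Briefly, cells in 96-well plates were exposed to five compound concentrations for 48 h, and endpoints were estimated by linear interpolation. TGI denotes the concentration required for complete inhibition of growth.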

The first assay relates to MDA-MB-231 breast. Nature of the assay: NCI-60 cell line screen, 48 h.
Molecule `CCOc1ccc(-c2nc(-c3oc4ccccc4c(=O)c3OC(C)=O)cs2)cc1` had a TGI of more than 10 µM.

As to `NP(=O)(OCC1=CC(=O)c2ccccc2C1=O)N(CCBr)CCBr` (stereo not drawn), the TGI came to 27.2 µM.

Another assay concerns SNB-75 CNS. Nature of the assay: NCI-60 cell line screen, 48 h.
`CCOc1ccc(-c2nc(-c3oc4ccccc4c(=O)c3OC(C)=O)cs2)cc1` displayed a TGI of more than 10 µM.

In turn, `CCOC(=O)c1ccc(N2C(=S)N(C(=O)c3ccccc3)C(=Nc3ccccc3)C2=Nc2ccccc2)cc1` displayed a TGI of 74.6 µM.

For the molecule `NP(=O)(OCC1=CC(=O)c2ccccc2C1=O)N(CCBr)CCBr` (stereo not drawn), the TGI was more than 35.8 µM.

In another assay the test system is COLO 205 colon. The assay can be described thus: NCI-60 cell line screen, 48 h.
`COC(=O)[C@@H]1CCCN1CCN1CCC[C@H]1C(=O)OC` showed a TGI of more than 100 µM.

Molecule `CCOc1ccc(-c2nc(-c3oc4ccccc4c(=O)c3OC(C)=O)cs2)cc1` showed a TGI of more than 10 µM.

With `NP(=O)(OCC1=CC(=O)c2ccccc2C1=O)N(CCBr)CCBr` (stereo not drawn), the TGI is more than 21.1 µM.

In another assay the test system is HL-60(TB) leukemia. Nature of the assay: NCI-60 cell line screen, 48 h.
`CCOc1ccc(-c2nc(-c3oc4ccccc4c(=O)c3OC(C)=O)cs2)cc1`: the TGI was more than 10 µM.

The molecule `NP(=O)(OCC1=CC(=O)c2ccccc2C1=O)N(CCBr)CCBr` (stereo not drawn) showed a TGI of more than 100 µM.

The test system of another assay is HS 578T breast. Nature of the assay: NCI-60 cell line screen, 48 h.
On to `CCOC(=O)c1ccc(N2C(=S)N(C(=O)c3ccccc3)C(=Nc3ccccc3)C2=Nc2ccccc2)cc1`, for which the TGI was more than 100 µM.

Regarding `NP(=O)(OCC1=CC(=O)c2ccccc2C1=O)N(CCBr)CCBr` (stereo not drawn), the TGI was 90.7 µM.

Another assay relates to HOP-62 NSCLC. The assay can be described thus: NCI-60 cell line screen, 48 h.
Turning to `COC(=O)[C@@H]1CCCN1CCN1CCC[C@H]1C(=O)OC`, the TGI was more than 100 µM.

`CCOc1ccc(-c2nc(-c3oc4ccccc4c(=O)c3OC(C)=O)cs2)cc1` yielded a TGI of more than 10 µM.

`CCOC(=O)c1ccc(N2C(=S)N(C(=O)c3ccccc3)C(=Nc3ccccc3)C2=Nc2ccccc2)cc1` returned a TGI of more than 100 µM.

A further assay relates to SF-295 CNS. Nature of the assay: NCI-60 cell line screen, 48 h.
Take `COC(=O)[C@@H]1CCCN1CCN1CCC[C@H]1C(=O)OC`: the TGI is more than 100 µM.

Consider `CCOc1ccc(-c2nc(-c3oc4ccccc4c(=O)c3OC(C)=O)cs2)cc1`, for which the TGI was more than 10 µM.

Molecule `CCOC(=O)c1ccc(N2C(=S)N(C(=O)c3ccccc3)C(=Nc3ccccc3)C2=Nc2ccccc2)cc1` came in with a TGI of more than 100 µM.

`NP(=O)(OCC1=CC(=O)c2ccccc2C1=O)N(CCBr)CCBr` (stereo not drawn) returned a TGI of 25.2 µM.

The subject of the next assay is NCI-H522 lung. The assay can be described thus: NCI-60 cell line screen, 48 h.
Take `COC(=O)[C@@H]1CCCN1CCN1CCC[C@H]1C(=O)OC`: the TGI was more than 100 µM.

`CCOC(=O)c1ccc(N2C(=S)N(C(=O)c3ccccc3)C(=Nc3ccccc3)C2=Nc2ccccc2)cc1` returned a TGI of more than 100 µM.

The molecule `NP(=O)(OCC1=CC(=O)c2ccccc2C1=O)N(CCBr)CCBr` (stereo not drawn) registered a TGI of 10.9 µM.

A further assay deals with SK-MEL-5 melanoma. Nature of the assay: NCI-60 cell line screen, 48 h.
`COC(=O)[C@@H]1CCCN1CCN1CCC[C@H]1C(=O)OC` yielded a TGI of more than 100 µM.

The molecule `CCOc1ccc(-c2nc(-c3oc4ccccc4c(=O)c3OC(C)=O)cs2)cc1` displayed a TGI of more than 10 µM.

With `CCOC(=O)c1ccc(N2C(=S)N(C(=O)c3ccccc3)C(=Nc3ccccc3)C2=Nc2ccccc2)cc1`, the TGI was more than 100 µM.

For the molecule `NP(=O)(OCC1=CC(=O)c2ccccc2C1=O)N(CCBr)CCBr` (stereo not drawn), the TGI was determined as 3.21 µM.

In a further assay the test system is CCRF-CEM leukemia. Nature of the assay: NCI-60 cell line screen, 48 h.
Molecule `CCOc1ccc(-c2nc(-c3oc4ccccc4c(=O)c3OC(C)=O)cs2)cc1` yielded a TGI of more than 10 µM.

In turn, `NP(=O)(OCC1=CC(=O)c2ccccc2C1=O)N(CCBr)CCBr` (stereo not drawn) registered a TGI of more than 100 µM.

A further assay has as its system U251 CNS. Nature of the assay: NCI-60 cell line screen, 48 h.
For `COC(=O)[C@@H]1CCCN1CCN1CCC[C@H]1C(=O)OC`, the TGI was more than 100 µM.

Molecule `CCOC(=O)c1ccc(N2C(=S)N(C(=O)c3ccccc3)C(=Nc3ccccc3)C2=Nc2ccccc2)cc1` returned a TGI of more than 100 µM.

On to `NP(=O)(OCC1=CC(=O)c2ccccc2C1=O)N(CCBr)CCBr` (stereo not drawn), for which the TGI is 28.7 µM.

A further assay relates to UO-31 renal. Nature of the assay: NCI-60 cell line screen, 48 h.
In turn, `COC(=O)[C@@H]1CCCN1CCN1CCC[C@H]1C(=O)OC` returned a TGI of more than 100 µM.

As for `CCOC(=O)c1ccc(N2C(=S)N(C(=O)c3ccccc3)C(=Nc3ccccc3)C2=Nc2ccccc2)cc1`, the TGI was more than 100 µM.

The molecule `NP(=O)(OCC1=CC(=O)c2ccccc2C1=O)N(CCBr)CCBr` (stereo not drawn) registered a TGI of 24.1 µM.

A further assay concerns HCT-116 colon. The assay can be described thus: NCI-60 cell line screen, 48 h.
As to `COC(=O)[C@@H]1CCCN1CCN1CCC[C@H]1C(=O)OC`, the TGI was more than 100 µM.

For `NP(=O)(OCC1=CC(=O)c2ccccc2C1=O)N(CCBr)CCBr` (stereo not drawn), the TGI was more than 45.1 µM.

The subject of another assay is HT29 colon. Nature of the assay: NCI-60 cell line screen, 48 h.
For `COC(=O)[C@@H]1CCCN1CCN1CCC[C@H]1C(=O)OC`, the TGI is more than 100 µM.

Regarding `CCOc1ccc(-c2nc(-c3oc4ccccc4c(=O)c3OC(C)=O)cs2)cc1`, the TGI was more than 10 µM.

`CCOC(=O)c1ccc(N2C(=S)N(C(=O)c3ccccc3)C(=Nc3ccccc3)C2=Nc2ccccc2)cc1` gave a TGI of more than 100 µM.

In turn, `NP(=O)(OCC1=CC(=O)c2ccccc2C1=O)N(CCBr)CCBr` (stereo not drawn) yielded a TGI of 34.9 µM.

The test system of the next assay is MDA-MB-435. The assay can be described thus: NCI-60 cell line screen, 48 h.
In turn, `COC(=O)[C@@H]1CCCN1CCN1CCC[C@H]1C(=O)OC` yielded a TGI of more than 100 µM.

`CCOC(=O)c1ccc(N2C(=S)N(C(=O)c3ccccc3)C(=Nc3ccccc3)C2=Nc2ccccc2)cc1` returned a TGI of more than 100 µM.

`NP(=O)(OCC1=CC(=O)c2ccccc2C1=O)N(CCBr)CCBr` (stereo not drawn) had a TGI of 4.74 µM.

Another assay has as its system ACHN renal. The assay can be described thus: NCI-60 cell line screen, 48 h.
As to `COC(=O)[C@@H]1CCCN1CCN1CCC[C@H]1C(=O)OC`, the TGI is more than 100 µM.

Take `CCOC(=O)c1ccc(N2C(=S)N(C(=O)c3ccccc3)C(=Nc3ccccc3)C2=Nc2ccccc2)cc1`: the TGI was more than 100 µM.

With `NP(=O)(OCC1=CC(=O)c2ccccc2C1=O)N(CCBr)CCBr` (stereo not drawn), the TGI was 15.7 µM.

A further assay deals with NCI-H460 lung. Nature of the assay: NCI-60 cell line screen, 48 h.
The molecule `COC(=O)[C@@H]1CCCN1CCN1CCC[C@H]1C(=O)OC` had a TGI of more than 100 µM.

`CCOC(=O)c1ccc(N2C(=S)N(C(=O)c3ccccc3)C(=Nc3ccccc3)C2=Nc2ccccc2)cc1` registered a TGI of more than 100 µM.
